The text below walks through data of PMC8270260, “4,7-Disubstituted 7H-Pyrrolo[2,3-d]pyrimidines and Their Analogs as Antiviral Agents against Zika Virus” (Molecules, 2021).

By inhibition is commonly meant the change of the read-out against control, counted positive when it falls. Read a low inhibition as a weak effect. As a reminder, the viability is a read-out of living cells in per cent, often relative to untreated cells. The low end stands for a greater loss of cells, the high end for better survival. What is called CC50 is the concentration that lowers cell viability or growth by half. The low end stands for greater toxicity to the cells, the high end for lower toxicity to the cells. As usually defined, the EC50 is the concentration that produces a half-maximal response. High values mean weaker potency, low ones greater potency. As usually defined, the EC90 is the point of the concentration-response curve where the effect stands at 90%. A low value points to an effect from little substance.

Data set [1] concerns ZIKV. As to the kind of experiment: ZIKV titer-reduction assay (plaque assay). It is filed as cell-based, Zika virus. The settings on record: Huh7, MOI 0.2, 72 hpi; for inhibition at 1.5 µM / inhibition at 8.5 µM / EC50 / EC90: Zika virus; for inhibition at 1.5 µM / inhibition at 8.5 µM: Huh-7, 72 h; for EC50 / EC90: Huh-7. The method, then: Selected compounds were validated at 8.5 µM or 1.5 µM (for compounds considered toxic at higher concentrations) using titer-reduction assays. Huh7 cells (1.5 × 10^5 per well) were plated in 24-well plates. Next day, the cells were inoculated with ZIKV or DENV (MOI 0.2 or 0.05, respectively) and two hours later, the inoculum was replaced with post-infection medium containing compound of interest at 8.5 µM or 1.5 µM. Seventy-two hpi, supernatants from infected and treated cells were collected and viral titers were measured by plaque assay. To visualize plaques, confluent Vero cells in 24-well plates were inoculated with 1:10 serial dilutions of supernatants. After two hours, the inoculum was retired and replaced with 800 µL of overlay medium (MEM medium containing 1.3% methylcellulose, 2% FBS, 100 IU streptomycin/penicillin per mL and 10 mM HEPES). After 5 days (7 days for DENV), cells were washed with PBS, fixed with 2% formaldehyde, and stained using 0.5% crystal violet in 25% methanol. Infectious virus titer (pfu/mL) was determined using the following formula: number of plaques × dilution factor × (1/inoculum volume (mL)). Viral titers were normalized with DMSO-treated and infected cells (0% inhibition). The limit of detection was 200 pfu/mL (100% inhibition). […] Dose-response assays (Figure S4, Panels B and C) were performed for selected compounds using titer-reduction assays. We used a concentration range of 0.5 to 15 µM for all selected compounds except for compound 14 (range of 0.1–3 µM). Pfu/mL were normalized as mentioned for single-dose response experiment using the values for DMSO-treated and infected cells (0% inhibition) and the limit of detection value (200 pfu/mL) as 100% inhibition. Dose-response curves were built in GraphPad Prism and EC50 values were obtained from those curves.

The test system of data set [2] is ZIKV. As to the kind of experiment: ZIKV reporter assay (luciferase-expressing ZIKV PAN1 Nluc in Huh7 cells). It is filed as cell-based. The settings on record: Zika virus, Huh-7, Huh7, MOI 0.2, 72 hpi. As for the experimental part: The initial screening for ZIKV was performed using the in-house developed infectious ZIKV reporter expressing Nanoluc (ZIKV PAN1 Nluc) (see details in SI). Briefly, 1.5 × 10^4 Huh7 cells per well were seeded in 96 well plates. Next day, cells were inoculated with the ZIKV reporter at a multiplicity of infection (MOI) of 0.2 in infection medium (MEM medium supplemented with 1% FBS, 100 IU streptomycin/penicillin per mL, 1 mM sodium pyruvate and 10 mM HEPES). After 2 h, the inoculum was replaced with post-infection medium (MEM medium supplemented with 5% FBS, 100 IU streptomycin/penicillin per mL, 1 mM sodium pyruvate and 10 mM HEPES) containing compound of interest (10 µM). We used the flavivirus NS5 MTase inhibitor NSC12155^13 (10 µM) and the NS5 RdRp inhibitor NITD008^12 (1 µM) as positive controls for inhibition or 0.05% DMSO as vehicle control. Seventy-two hours post-infection (hpi), the cells were lysed with 50 µL 1× luciferase lysis buffer (Promega, Madison, WI, USA), incubated 10 min at room temp and stored at −80 °C. Thirty-five µL of lysed cells were transferred to a white 96-well plate and combined with 35 µL Nano-Glo® luciferase assay substrate (Promega) diluted 1:50 in Nano-Glo® luciferase assay buffer (Promega). The reaction was incubated for 2 min and luminescence readings were acquired using a Neo 2 plate reader (BioTek, Winooski, VT, USA). Percent inhibition was calculated in GraphPad Prism (San Diego, CA, USA) normalizing the luciferase signal to infected cells treated with DMSO (0% inhibition) and uninfected cells treated with DMSO (100% inhibition). EC50 values were calculated in GraphPad Prism using data obtained from dose-response experiments. For compounds 1 and 8, a range of concentrations between 0.05 and 15 µM were used. For compounds 11, 14, 23 and NSC12155, we used concentrations from 0.005 to 90 µM and 0.002 to 45 µM for NITD008.
On the technique in general: In a reporter assay the amount or activity of a reporter protein is the signal.

A short description of data set [3]: Cell viability assay (MTS). It is filed as cell-based. To be noted: human, non-infected Huh7 cells; for viability at 10 µM: normalized to DMSO; for CC50 at 72 h: Huh7 cells. The method, then:
Cell viability assays for non-infected Huh7 cells treated with the testing compounds (in-house library), control compounds (NITD008, RDV) and DMSO were performed in parallel with the antiviral screening. After 3 or 5 days of treatment, depending upon the experiment, cell viability was evaluated using the MTS-based tetrazolium reduction CellTiter 96 Aqueous Non-Radioactive cell proliferation assay (Promega). Treatment was retired from the wells and the cells incubated with MTS diluted 1:10 in MEM medium supplemented with 10% FBS. Absorbance was measured at 490 nm wavelength. Readings were normalized with DMSO-treated cells (100%) and expressed as % viability. For dose-response experiments, we used concentrations between 0.01 and 90 µM and dose-response curves and CC50 were calculated using GraphPad Prism.

With `Clc1cccc(CNc2ncnc3c2ccn3Cc2ccc3nc(Cl)ccc3c2)c1` [Compound 16, N-(3-Chlorobenzyl)-7-((2-chloroquinolin-6-yl)methyl)-7H-pyrrolo[2,3-d]pyrimidin-4-amine], testing at 1.5 µM with ZIKV [1] gave an inhibition of 10%. Besides, the inhibition at 10 µM in the data set on ZIKV [2] was 95%. In data set [3], this compound had a viability at 10 µM of 34%.
For `N#Cc1ccc(Cn2ccc3c(NCc4cc(Cl)ccc4Cl)ncnc32)cc1` [Compound 28, 4-((4-((2,5-Dichlorobenzyl)amino)-7H-pyrrolo[2,3-d]pyrimidin-7-yl)methyl)benzonitrile], at 10 µM the inhibition in the data set with ZIKV [2] was 74%. Further, the viability at 10 µM in data set [3] was found to be 48%.
For `O=[N+]([O-])c1ccc(Cn2ncc3c(NCc4cccc(Cl)c4)ncnc32)cc1` [Compound 31, N-(3-Chlorobenzyl)-1-(4-nitrobenzyl)-1H-pyrazolo[3,4-d]pyrimidin-4-amine], the inhibition at 8.5 µM in the data set on ZIKV [1] (8.5 µM) was 86%. The compound also gave an inhibition at 10 µM with ZIKV [2] of 83%. The same compound returned a viability at 10 µM in data set [3] of 96%.
Consider `O=[N+]([O-])c1ccc(Cn2ccc3c(NCc4ccccc4)ncnc32)cc1` [Compound 18, N-Benzyl-7-(4-nitrobenzyl)-7H-pyrrolo[2,3-d]pyrimidin-4-amine], for which the inhibition at 10 µM in the data set with ZIKV [2] amounted to 96%. The same compound came in with a viability at 10 µM in data set [3] of 42%.
In the case of `O=[N+]([O-])c1ccc(Cn2cnc3c(NCc4cccc(Cl)c4)ncnc32)cc1` [Compound 29, N-(3-Chlorobenzyl)-9-(4-nitrobenzyl)-9H-purin-6-amine], the inhibition at 8.5 µM in the data set on ZIKV [1] (8.5 µM) amounted to 90%. In the data set with ZIKV [2], this compound displayed an inhibition at 10 µM of 59%. In data set [3], this compound returned a viability at 10 µM of 87% and a CC50 at 72 h of 24.5 µM.
In the data set on ZIKV [1], `Cc1cc(N)c2cc(NC(=O)Nc3ccc4nc(C)cc(N)c4c3)ccc2n1` [NSC 12155, reference compound] gave an inhibition at 1.5 µM of 37%, an EC50 of 7.34 µM and an EC90 of 14.1 µM. In the data set on ZIKV [1] (8.5 µM), this compound showed an inhibition at 8.5 µM of 72%. Moreover, in the data set on ZIKV [2], the inhibition at 10 µM came out at 68% and the EC50 was 2.18 µM. In data set [3], this compound returned a viability at 10 µM of 70% and a 50% cytotoxic concentration (CC50) at 72 h of 23 µM.
In the data set on ZIKV [2], `N#Cc1ccc(Cn2ccc3c(NCc4ccccc4Cl)ncnc32)cc1` [Compound 26, 4-((4-((2-Chlorobenzyl)amino)-7H-pyrrolo[2,3-d]pyrimidin-7-yl)methyl)benzonitrile] registered an inhibition at 10 µM of 58%. Also, in data set [3], the viability at 10 µM is 76%.
On to `N#Cc1ccc(Cn2ccc3c(NCc4cccc(Cl)c4Cl)ncnc32)cc1` [Compound 27, 4-((4-((2,3-Dichlorobenzyl)amino)-7H-pyrrolo[2,3-d]pyrimidin-7-yl)methyl)benzonitrile], for which at 10 µM the inhibition in the data set on ZIKV [2] was 71%. This compound also yielded a viability at 10 µM in data set [3] of 78%.
`N#Cc1ccc(Cn2cnc3c(NCc4cccc(Cl)c4)ncnc32)cc1` [Compound 30, 4-((6-((3-Chlorobenzyl)amino)-9H-purin-9-yl)methyl)benzonitrile] had an inhibition at 8.5 µM in the data set with ZIKV [1] (8.5 µM) of 93%. In addition, in the data set with ZIKV [1], the EC50 came to 7.12 µM and the EC90 was 12.4 µM. Further, testing at 10 µM with ZIKV [2] gave an inhibition of 68%. Further, in data set [3], the viability at 10 µM was 94% and half-maximal cytotoxicity (CC50 at 72 h) was put at 49.3 µM.
In the data set with ZIKV [2], `Cc1cccc(CNc2ncnc3c2ccn3Cc2ccc(C#N)cc2)c1` [Compound 25, 4-((4-((3-Methylbenzyl)amino)-7H-pyrrolo[2,3-d]pyrimidin-7-yl)methyl)benzonitrile] showed an inhibition at 10 µM of 84%. In data set [3], this compound showed a viability at 10 µM of 33%.
`Nc1ncnc2c1ccn2Cc1ccc([N+](=O)[O-])cc1` [Compound 17, 7-(4-Nitrobenzyl)-7H-pyrrolo[2,3-d]pyrimidin-4-amine] displayed an inhibition at 10 µM in the data set with ZIKV [2] of 0%. For the same compound, the viability at 10 µM in data set [3] came to 92%.
Regarding `O=[N+]([O-])c1ccc(Cn2ccc3c(NCc4ccccc4Cl)ncnc32)cc1` [Compound 19, N-(2-Chlorobenzyl)-7-(4-nitrobenzyl)-7H-pyrrolo[2,3-d]pyrimidin-4-amine], testing at 8.5 µM with ZIKV [1] (8.5 µM) gave an inhibition of 91%. This compound also returned an inhibition at 10 µM in the data set on ZIKV [2] of 49%. The viability at 10 µM in data set [3] is 80%.
In the case of `O=[N+]([O-])c1ccc(Cn2ccc3c(NCc4cccc5ccccc45)ncnc32)cc1` [Compound 24, N-(Naphthalen-1-ylmethyl)-7-(4-nitrobenzyl)-7H-pyrrolo[2,3-d]pyrimidin-4-amine], the inhibition at 1.5 µM with ZIKV [1] stood at 13%. In the data set on ZIKV [2], this compound registered an inhibition at 10 µM of 94%. In data set [3], the viability at 10 µM was 44%.
In the data set with ZIKV [1] (8.5 µM), `O=[N+]([O-])c1cccc(Cn2ccc3c(NCc4cccc(Cl)c4)ncnc32)c1` [Compound 5, N-(3-Chlorobenzyl)-7-(3-nitrobenzyl)-7H-pyrrolo[2,3-d]pyrimidin-4-amine] yielded an inhibition at 8.5 µM of 92%. Also, the inhibition at 10 µM in the data set on ZIKV [2] amounted to 77%. Further, in data set [3], the viability at 10 µM was 79%.
For `Clc1cccc(CNc2ncnc3c2ccn3Cc2cccc3ccccc23)c1` [Compound 12, N-(3-Chlorobenzyl)-7-(naphthalen-1-ylmethyl)-7H-pyrrolo[2,3-d]pyrimidin-4-amine], in that order: 66%, 84% and 73%.
In turn, `O=[N+]([O-])c1ccc(Cn2ccc3c(NCc4cccc(Cl)c4Cl)ncnc32)cc1` [Compound 21, N-(2,3-Dichlorobenzyl)-7-(4-nitrobenzyl)-7H-pyrrolo[2,3-d]pyrimidin-4-amine] registered an inhibition at 8.5 µM in the data set on ZIKV [1] (8.5 µM) of 91%. Moreover, in the data set on ZIKV [2], the inhibition at 10 µM turned out to be 67%. This compound registered a viability at 10 µM in data set [3] of 77%.
For `Clc1cccc(CNc2ncnc3c2ccn3Cc2ccccc2)c1` [Compound 3, 7-Benzyl-N-(3-chlorobenzyl)-7H-pyrrolo[2,3-d]pyrimidin-4-amine], in that order: 68%, 42% and 90%.
As to `FC(F)(F)c1cccc(Cn2ccc3c(NCc4cccc(Cl)c4)ncnc32)c1` [Compound 9, N-(3-Chlorobenzyl)-7-(3-(trifluoromethyl)benzyl)-7H-pyrrolo[2,3-d]pyrimidin-4-amine], in the data set on ZIKV [1] (8.5 µM), the “Titer Reduction Assay % at 8.5 µM” value was “toxic”. In addition, in the data set on ZIKV [2], the inhibition at 10 µM was determined as 92%. Also, in data set [3], the viability at 10 µM is 61%.
Turning to `O=[N+]([O-])c1ccc(Cn2ccc3c(NCc4cc(Cl)ccc4Cl)ncnc32)cc1` [Compound 22, N-(2,5-Dichlorobenzyl)-7-(4-nitrobenzyl)-7H-pyrrolo[2,3-d]pyrimidin-4-amine], 8.5 µM produced 77% inhibition with ZIKV [1] (8.5 µM). This compound gave an inhibition at 10 µM with ZIKV [2] of 71%. In addition, in data set [3], the viability at 10 µM came to 62% and the CC50 at 72 h was determined as 26.9 µM.
On to `CS(=O)(=O)c1ccc(Cn2ccc3c(NCc4cccc(Cl)c4)ncnc32)cc1` [Compound 7, N-(3-Chlorobenzyl)-7-(4-(methylsulfonyl)benzyl)-7H-pyrrolo[2,3-d]pyrimidin-4-amine], for which testing at 1.5 µM in the data set with ZIKV [1] gave an inhibition of 69%. At 10 µM the inhibition in the data set on ZIKV [2] was 98%. Further, the viability at 10 µM in data set [3] came to 39%.
